Here are results for eight molecules from patent US20230233537A1, “Compositions and Kits of Parts Comprising N,N-Dimethyltryptamine and Harmine and Their Use in Therapy” (University of Zürich, priority 2020, published 2023).

Data set [1] is described as follows: local tolerability on nasal or oral mucosa (burning sensation). To be noted: for burning sensation on nasal application: intranasal.
The nature of data set [2]: combined intranasal/buccal study (parenteral pharmahuasca): DMT and harmine concentrations in plasma. To be noted: for variation of peak plasma concentrations (cmax), extensive vs. poor metabolizers, factor: 150 mg buccal harmine HCl, up to 50 mg incremental intranasal DMT fumarate; for bioavailability (area under the curve; AUC) compared to oral administration: DMT fumarate intranasal, harmine HCl buccal.

A short description of data set [3]: aqueous solubility of DMT and harmine forms. The note with it: for solubility: water, 25 °C.
Data set [4] deals with T1, monoamine oxidase A (MAO-A) (Homo sapiens, UniProt P21397).
T1 sequence (P21397 1-527): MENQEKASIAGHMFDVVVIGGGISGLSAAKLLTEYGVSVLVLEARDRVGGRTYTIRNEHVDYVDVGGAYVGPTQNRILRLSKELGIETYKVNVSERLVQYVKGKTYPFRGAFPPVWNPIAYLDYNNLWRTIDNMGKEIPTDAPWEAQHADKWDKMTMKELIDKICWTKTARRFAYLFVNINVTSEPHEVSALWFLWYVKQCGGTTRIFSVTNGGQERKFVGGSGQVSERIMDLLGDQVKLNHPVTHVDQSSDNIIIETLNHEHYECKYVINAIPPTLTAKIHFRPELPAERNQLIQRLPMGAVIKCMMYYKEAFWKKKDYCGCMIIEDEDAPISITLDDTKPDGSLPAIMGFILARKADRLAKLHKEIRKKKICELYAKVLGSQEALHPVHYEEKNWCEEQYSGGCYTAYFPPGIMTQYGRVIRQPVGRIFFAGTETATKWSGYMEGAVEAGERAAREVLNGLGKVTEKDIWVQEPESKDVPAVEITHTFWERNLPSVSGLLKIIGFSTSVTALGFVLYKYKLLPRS
To be noted: cited from earlier work.

Data set [5] has as its target T2, monoamine oxidase B (MAO-B) (Homo sapiens, UniProt P27338).
T2 sequence (P27338 1-520): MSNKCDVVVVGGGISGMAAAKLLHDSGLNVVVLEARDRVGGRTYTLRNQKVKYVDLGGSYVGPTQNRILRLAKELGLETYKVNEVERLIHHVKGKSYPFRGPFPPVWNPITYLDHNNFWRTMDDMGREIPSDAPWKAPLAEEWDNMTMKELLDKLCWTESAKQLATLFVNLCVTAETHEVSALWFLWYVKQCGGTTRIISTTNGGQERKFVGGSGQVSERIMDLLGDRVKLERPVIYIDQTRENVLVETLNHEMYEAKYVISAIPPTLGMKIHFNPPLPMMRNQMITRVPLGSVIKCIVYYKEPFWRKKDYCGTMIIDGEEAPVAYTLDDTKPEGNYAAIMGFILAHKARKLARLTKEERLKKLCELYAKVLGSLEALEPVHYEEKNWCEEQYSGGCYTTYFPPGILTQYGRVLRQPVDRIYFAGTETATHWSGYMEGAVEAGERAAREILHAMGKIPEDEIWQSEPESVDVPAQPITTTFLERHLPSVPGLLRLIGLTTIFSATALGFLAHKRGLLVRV
To be noted: cited from earlier work.

The target of data set [6] is hepatic enzyme CYP2D6 (Homo sapiens, UniProt P10635). To be noted: cited from earlier work.
Data set [7] can be described thus: peroral pharmahuasca study: DMT and harmine concentrations in plasma. To be noted: male, human, oral.
Data set [8] in a line: buccal / transmucosal absorption of DMT forms. To be noted: in vivo.

hepatic enzyme CYP2D6, sequence (P10635 whole entry): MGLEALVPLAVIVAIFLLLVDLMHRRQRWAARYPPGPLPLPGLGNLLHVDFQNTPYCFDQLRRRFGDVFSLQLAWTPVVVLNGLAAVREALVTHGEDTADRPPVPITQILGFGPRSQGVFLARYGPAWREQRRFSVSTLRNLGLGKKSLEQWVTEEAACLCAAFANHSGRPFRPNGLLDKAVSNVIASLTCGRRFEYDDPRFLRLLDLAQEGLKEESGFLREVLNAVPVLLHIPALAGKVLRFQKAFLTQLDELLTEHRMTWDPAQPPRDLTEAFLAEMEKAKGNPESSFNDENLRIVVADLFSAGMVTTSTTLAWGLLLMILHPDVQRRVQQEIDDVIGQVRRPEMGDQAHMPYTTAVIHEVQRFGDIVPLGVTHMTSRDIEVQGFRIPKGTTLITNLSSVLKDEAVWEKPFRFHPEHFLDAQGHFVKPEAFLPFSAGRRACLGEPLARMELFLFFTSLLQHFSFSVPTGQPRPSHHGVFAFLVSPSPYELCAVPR

In the case of `CN(C)CCc1c[nH]c2ccccc12` [DMT, N,N-Dimethyltryptamine], in data set [1] (buccal, basic corrosion of the oral mucosa), the “burning sensation when administered buccally” value is recorded as “burning sensation”. For the same molecule, the “variation of peak plasma concentrations (cmax), extensive vs. poor metabolizers, factor” value in data set [2] is recorded as around 2.3.

Take `COc1ccc2c(c1)[nH]c1c(C)nccc12.O=C(O)/C=C/C(=O)O` [harmine fumarate]: the solubility in data set [3] is at most 35 mg/mL. The “burning sensation on nasal application” value in data set [1] is listed as “intense burning sensation”.

In turn, `COc1ccc2c(c1)[nH]c1c(C)nccc12.Cl` [harmine HCl, Harmine hydrochloride] had a solubility in data set [3] of at most 35 mg/mL. The “burning sensation on nasal application” value in data set [1] is listed as “intense burning sensation”. Besides, the “bioavailability (area under the curve; AUC) compared to oral administration” value in data set [2] is listed as “substantially higher”.

Regarding `COc1ccc2c(c1)[nH]c1c(C)nccc12.O=S(=O)(O)O` [harmine sulfate], the solubility in data set [3] is at most 35 mg/mL. Further, in data set [1], the “burning sensation on nasal application” value was “intense burning sensation”.

As to `CC(=O)O.COc1ccc2c(c1)[nH]c1c(C)nccc12` [harmine acetate], the solubility in data set [3] is at most 35 mg/mL. For the same molecule, in data set [1], the “burning sensation on nasal application” value is “intense burning sensation”.

As to `COc1ccc2c(c1)[nH]c1c(C)nccc12` [harmine, 7-Methoxy-1-methyl-9H-pyrido[3,4-b]indol], the “inhibition of MAO-A” value in data set [4] is given as “reversibly inhibits”. Moreover, the “inhibition of MAO-B” value in data set [5] is listed as “does not inhibit”. In data set [6], the “degradation by CYP2D6” value is listed as “mainly degraded”. Also, in data set [3], the “solubility (in words)” value was “very low”. Further, the time of peak concentration (Tmax) in data set [7] lay within 1 to 4.5 h. Further, in data set [2], the “variation of peak plasma concentrations (cmax), extensive vs. poor metabolizers, factor” value was around 3.2.

As for `CN(C)CCc1c[nH]c2ccccc12.O=C(O)/C=C/C(=O)O` [DMT fumarate, N,N-dimethyltryptamine fumarate], in data set [3], the “solubility (in words)” value is “high” and the solubility was above 35 mg/mL. For the same molecule, the transmucosal absorption result in data set [8] was “efficient”. In addition, the “bioavailability (area under the curve; AUC) compared to oral administration” value in data set [2] is reported as “substantially higher”.

Turning to `COc1ccc2c(c1)[nH]c1c(C)nccc12.O=C(O)CC(O)(CC(=O)O)C(=O)O` [harmine citrate], the solubility in data set [3] was at most 35 mg/mL. In data set [1], the “burning sensation on nasal application” value is on record as “intense burning sensation”.

As usually defined, the solubility is the concentration that dissolves in the medium under given conditions. Low values mean little dissolved substance, high ones much dissolved substance. As a reminder, the Tmax is the time at which the peak concentration occurs.
